Assay results: US9133262B2, “Somatostatin antagonists” (Ipsen Pharma S.A.S., priority 1996, dated 2015)
pIC50: −log10 of the molar value. Positions of bridges follow the written chain, without caps; N, C: chain ends. Non-standard residues stand in square brackets, D forms with d. Residues, ends and D or L forms follow the SMILES beside them. Phe(4-Cl) = N[C@@H](Cc1ccc(Cl)cc1)C(=O)O; 2Nal = N[C@@H](Cc1ccc2ccccc2c1)C(=O)O; 3Pal = N[C@@H](Cc1cccnc1)C(=O)O; Tle = CC(C)(C)[C@H](N)C(=O)O

What follows are molecules tested on rat pituitary cells. Conditions: 3 h.
Format: cell-based
Method in brief: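 GH radioimmunoassay of medium after 3 h, 37° C incubation of cultured rat anterior pituitary cells with antagonist (6 doses) against 1 nM somatostatin in presence of 1 nM GRF(1-29)NH2; medium 199, 1% BSA, triplicates. IC50 derived by curve fit with top fixed at GRF-only control response.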

pIC50 | Structure (SMILES)
8.59 | CC(C)[C@@H]1NC(=O)[C@H](CCCCN)NC(=O)[C@@H](Cc2c[nH]c3ccccc23)NC(=O)[C@H](Cc2cccnc2)NC(=O)[C@H](NC(=O)[C@@H](N)Cc2ccc(Cl)cc2)CSSC[C@@H](C(=O)N[C@@H](Cc2ccc3ccccc3c2)C(N)=O)NC1=O [Analog No. 55, H2-p-Cl-Phe-D-Cys-Pal-D-Trp-Lys-Val-Cys-β-Nal-NH2] (H-[Phe(4-Cl)][dC][3Pal][dW]KVC[2Nal]-NH2; disulfide 2-7)
8.74 | CC(C)(C)[C@@H]1NC(=O)[C@H](CCCCN)NC(=O)[C@@H](Cc2c[nH]c3ccccc23)NC(=O)[C@H](Cc2cccnc2)NC(=O)[C@H](NC(=O)[C@@H](N)Cc2ccc(Cl)cc2)CSSC[C@@H](C(=O)N[C@@H](Cc2ccc3ccccc3c2)C(N)=O)NC1=O [Analog No. 56, H2-p-Cl-Phe-D-Cys-Pal-D-Trp-Lys-Tle-Cys-β-Nal-NH2] (H-[Phe(4-Cl)][dC][3Pal][dW]K[Tle]C[2Nal]-NH2; disulfide 2-7)
8.23 | CC(C)(C)[C@@H]1NC(=O)[C@H](CCCCN)NC(=O)[C@@H](Cc2c[nH]c3ccccc23)NC(=O)[C@H](Cc2cccnc2)NC(=O)[C@H](NC(=O)[C@@H](N)Cc2ccc(Cl)cc2)CSSC[C@@H](C(=O)N[C@@H](Cc2ccc(Cl)cc2)C(N)=O)NC1=O [Analog No. 57, H2-p-Cl-Phe-D-Cys-Pal-D-Trp-Lys-Tle-Cys-p-Cl-Phe-NH2] (H-[Phe(4-Cl)][dC][3Pal][dW]K[Tle]C[Phe(4-Cl)]-NH2; disulfide 2-7)
